Test results as given in US9637529B2, “Medicament for atrophy treatment or increasing cell growth” (SIMU TRADE CONSULTING GMBH & CO. LEASING KG, priority 2012, dated 2017).
Entries after “also recorded” stand apart in the source; their conditions may differ.

Key:
[1] = tested on: human T-cell line (Jurkat); assay: H2O2-induced apoptosis, trypan-blue staining, Jurkat; assay type: cell-based; conditions: 200 mM H2O2, SERF2 5 μg/ml, 6 hours, serum-free
Method: Experiments were performed in 6-well plates containing 5 ml cell culture medium (serum-free) per well and were seeded at a cell density of 1*10^6 cells/well and cultured overnight. On the next day 200 mM H2O2 (red bar) or 200 mM H2O2 and SERF2 (green bar; 5 μg/ml) was added to cultures. After 6 hours of incubation, the adherent cells were harvested, washed 3 times in PBS and dead cells were detected by trypan-blue staining using light microscopy. Shown is the percentage of dead cells.
(§1) Trypan Blue staining is one of the most commonly used methods to determine the cell viability using light microscopy. Trypan blue can only stain cells if their membrane is damaged.
(§2) The question was asked whether SERF2 has an effect on growth factor deprivation- or stress-induced apoptosis. The experimental protocol included addition of Hydrogen peroxide (H2O2), which is known to cause cellular stress and consequently apoptotic death in doses below 200 μM (Cox A., Carcinogenesis. 2007, Vol. 28, 10). Furthermore apoptosis was induced by deprivation of granulocyte macrophage colony-stimulating factor (GM-CSF) in cultures of TF-1 cells. These cells are dependent on the presence of a growth factor which is absolutely necessary for growth and differentiation of TF-1 cells.

[2] = tested on: zebrafish; assay: Zebrafish TUNEL in situ staining of apoptotic cells; assay type: in vivo; conditions: gill, skeletal muscle and tail sections, versus untreated animals
Method: FIG. 18: Apoptotic cells detected by TUNEL technology in gill, skeletal muscle and tail sections.
SERF2 was administered by a) injection of the native protein into the yolk sac of 3 day post fertilization (dpf) animals and freshly fertilized eggs (2-8 cell stage) in various protein concentrations or chronic incubation with the native protein to supply it via diffusion. For in deep analysis of angiogenic effects flk-1 transgenic animals with gfp (green fluorescent protein) labelled endothelium were used. For all other experiments wildtype (wdt) animals were used.
Apoptotic. cells were detected by TUNEL technology using in situ Cell Death Detection Kit, Fluorescein (Roche Applied Science, Mannheim, Germany) according to the manufacturer's instructions. Statistical Analysis. The acquired data statistically analyzed by using a two tailed students t-Test (Microsoft Excel) and significance was accepted when P<0.05. Data are presented as mean±S.E.M.

[3] = tested on: human epithelial cell line (A431); assay: H2O2-induced apoptosis, trypan-blue staining, A431; assay type: cell-based; conditions: 200 mM H2O2, SERF2 5 μg/ml, 6 hours, serum-free
Method: (§3) Experiments were performed in 6-well plates containing 5 ml cell culture medium (serum-free) per well and were seeded at a cell density of 1*10^6 cells/well and cultured overnight. On the next day 200 mM H2O2 or 200 mM H2O2 and SERF2 (5 μg/ml) was added to cultures. After 6 hours of incubation, the adherent cells were harvested, washed 3 times in PBS and dead cells were detected by trypan-blue staining using light microscopy. Shown is the percentage of dead cells.
as §1, §2

[4] = tested on: rat skeletal muscle cells (L6); assay: AlamarBlue proliferation assay, L6 cells; assay type: cell-based
Method: FIG. 2: Effect of SERF2 on Proliferation of rat skeletal muscle cells (L6). 1×10^4 L6 cells were seeded per well containing 100 μl growth medium. Cells were incubated over night at +37° C., 5% v/v CO^2 and humidified atmosphere. Prior performing the assay, viability of cells was checked under the microscope. Cells were washed three times with 100 μl DPBS per well. SERF2 was diluted […]) in DMEM and 100 μl/well were added to the cells. Finally, cells were incubated at +37° C. for various time points. Subsequently 10 μl/well AlamarBlue™ reagent (Invitrogen) was added. Plates were incubated for one hour at +37° C. Fluorescence (Ex. 570 nm, Em. 585 nm) was measured using a Varioskan Flash multi-plate reader (Thermo Scientific). Obtained Data were evaluated using Microsoft Excel and Graph Pad Prism V4.
FIG. 6: Kinetics of the Effect of SERF2 on Proliferation of rat skeletal muscle cells (L6). Cells stimulated with SERF2 (green line) responded with proliferation and reached a max. proliferation rate after 6 days. Proliferation assay was performed essentially as in FIG. 2. Incubation times were 24, 48, 72 and 144 hrs, the SERF2 concentration added was 5 μg/ml.
Rat derived embryonic cardiomyocytes H9c2 (ATTC CRL-1446) and embryonic skeletal muscle cells L6 (ATTC CRL-1458) were cultured in Dulbecco's Modified Eagle Medium high glucose (DMEM, Sigma Aldrich) containing 10% v/v fetal calf serum (FCS, PAA) and 1% v/v Penicillin/Streptamycin (Gibco). Cells were grown in 80 cm2 cell culture flasks (NUNC) using 15 ml growth medium. Both cell lines were incubated under humidified atmosphere at +37° C. and 5% v/v CO^2. Cells were splitted when a confluency of approximately 90% was reached. […] Cell number and viability were determined by trypanblue exclusion performed by using an automated cell analyzer (CEDEX, Innovatis). […]
Proliferation was measured using the AlamarBlue™ assay according to the manufacturer's protocol. […] Fluorescence (Ex. 570 nm, Em. 585 nm) was measured using a Varioskan Flash multi-plate reader (Thermo Scientific). Data were evaluated using Microsoft Excel and GraphPad Prism V4.

[5] = tested on: human epithelial cell line (MCF-7); assay: H2O2-induced apoptosis, trypan-blue staining, MCF-7; assay type: cell-based; conditions: 200 mM H2O2, SERF2 5 μg/ml, 6 hours, serum-free
Method: as §3, §1, §2

[6] = tested on: rat cardiomyocytes (H9c2); assay: AlamarBlue proliferation assay, H9c2 cells; assay type: cell-based
Method: FIG. 3: Effect of SERF2 on Proliferation of H9c2 cells is dose-dependent. Proliferation assay was performed essentially as in FIG. 2. Incubation time was 24 hrs, added SERF2 concentrations ranged from 20 to 1.25 μg/ml.
FIG. 5: Kinetics of the Effect of SERF2 on Proliferation of rat cardiomyocytes (H9c2). Cells stimulated with SERF2 (green line) responded with proliferation and reached max. proliferation rate after 6 days. Proliferation assay was performed essentially as in FIG. 2. Incubation times were 24, 48, 72 and 144 hrs, the SERF2 concentration added was 5 μg/ml.
Rat derived embryonic cardiomyocytes H9c2 (ATTC CRL-1446) and embryonic skeletal muscle cells L6 (ATTC CRL-1458) were cultured in Dulbecco's Modified Eagle Medium high glucose (DMEM, Sigma Aldrich) containing 10% v/v fetal calf serum (FCS, PAA) and 1% v/v Penicillin/Streptamycin (Gibco). Cells were grown in 80 cm2 cell culture flasks (NUNC) using 15 ml growth medium. Both cell lines were incubated under humidified atmosphere at +37° C. and 5% v/v CO^2. Cells were splitted when a confluency of approximately 90% was reached. Usually a splitting ratio of 1:5 or 1:10 was applied. For this purpose, supernatant was removed and cells were washed using 10 ml Dulbecco's Phosphate Buffered Saline (DPBS, Gibco). Cells were harvested by addition of 3 ml Trypsin/EDTA (Gibco) followed by an incubation of 5 to 10 min at +37° C. Successful detachment of cells was checked under the microscope (IMT-2, Olympus) and 7 ml growth medium were added. Cell number and viability were determined by trypanblue exclusion performed by using an automated cell analyzer (CEDEX, Innovatis). For this, 950 μl DPBS and 50 μl cell-suspension were mixed and used for analysis.
Proliferation was measured using the AlamarBlue™ assay according to the manufacturer's protocol. Briefly, 1×10^4 cells were seeded per well containing 100 μl growth medium. […] Fluorescence (Ex. 570 nm, Em. 585 nm) was measured using a Varioskan Flash multi-plate reader (Thermo Scientific). Data were evaluated using Microsoft Excel and GraphPad Prism V4.

[7] = SERF2 5 μg/ml, incubation 24, 48, 72 and 144 hrs

Q: Which “protection from H2O2-induced apoptosis (percentage of dead cells), Jurkat” value [1] does the source give for “SERF2: Small EDRK-rich factor 2, mature protein of 59 amino acids (SEQ ID NO: 1) (MTRGNQRELARQKNMKKQSDSVKGKRRDDGLSAAARKQRDSEIMQQKQKKANEKKEEPK; homo sapiens)” here?
A: markedly reduced apoptosis; also recorded: protects a human T-cell line (Jurkat) from H2O2-induced apoptosis

Q: What about the “number of apoptotic cells (TUNEL)” value [2] of the same substance?
A: reduced number of apoptotic cells; also recorded: lower in different regions as compared to untreated animals

Q: And the “protection from H2O2-induced apoptosis (percentage of dead cells), A431” value [3]?
A: markedly reduced apoptosis; also recorded: protects a human epithelial cell line (A431) from H2O2-induced apoptosis

Q: And the “proliferative effect on L6 rat skeletal muscle cells” value ([4]; AlamarBlue, single treatment, read daily until day six)?
A: proliferative effect on L6 rat skeletal muscle cells in a dose- and time-dependent manner

Q: And the “time to max. proliferation rate, L6” value [4, 7]?
A: 6 days

Q: What about the “time of maximum proliferative effect, L6” value ([4]; incubation time) of the same substance?
A: three to six

Q: And the “protection from H2O2-induced apoptosis (percentage of dead cells), MCF-7” value [5]?
A: markedly reduced apoptosis; also recorded: protects a human epithelial cell line (MCF-7) from H2O2-induced apoptosis

Q: What about the “proliferative effect on H9c2 cells” value ([6]; 24 h treatment, SERF2 20 to 1.25 μg/ml) of the same substance?
A: proliferative effect in a dose-dependent manner

Q: And the “SERF2 concentration at which proliferative effect peaks, H9c2” value ([6]; AlamarBlue)?
A: 5 µg/mL

Q: What about the “time to max. proliferation rate, H9c2” value [6, 7] of the same substance?
A: 6 days
